The results in this text go back to patent publication US6762178B2, “Acetylenic aryl sulfonamide and phosphinic acid amide hydroxamic acid TACE inhibitors” (Wyeth Holdings Corporation, priority 1999, dated 2004).

One test deals with MMP-13 (Homo sapiens, UniProt P45452). The test can be described thus: MMP-13 inhibition (thiopeptide or fluorescent peptide substrate). It counts as biochemical. The method, then: (§1) The enzyme activity is measured by the rate of the color increase. The thiopeptide substrate is made up fresh as a 20 mM stock in 100% DMSO and the DTNB is dissolved in 100% DMSO as a 100 mM stock and stored in the dark at room temperature. Both the substrate and DTNB are diluted together to 1 mM with substrate buffer (50 mM HEPES pH 7.5, 5 mM CaCl2) before use. The stock of enzyme is diluted with buffer (50 mM HEPES, pH 7.5, 5 mM CaCl2, 0.02% Brij) to the desired final concentration.
(§2) Alternatively, a fluorescent peptide substrate is used. In this test procedure, the peptide substrate contains a fluorescent group and a quenching group. Upon cleavage of the substrate by an MMP, the fluorescence that is generated is quantitated on the fluorescence plate reader. The assay is run in HCBC assay buffer (50 mM HEPES, pH 7.0, 5 mM Ca^+2, 0.02% Brij, 0.5% Cysteine), with human recombinant MMP-1, MMP-9, or MMP-13. The substrate is dissolved in methanol and stored frozen in 1 mM aliquots. For the assay, substrate and enzymes are diluted in HCBC buffer to the desired concentrations. […]
(§3) For either the thiopeptide or fluorescent peptide test procedures, the slope of the line is calculated and represents the reaction rate. […] The mean (x±sem) of the control rate is calculated and compared for statistical significance (p<0.05) with drug-treated rates using Dunnett's multiple comparison test.

The subject of the next test is THP-1 cells. The test can be described thus: THP-1 soluble protein assay. It counts as cell-based, human. The note with it: LPS-stimulated THP-1 cells. An excerpt:
In addition, non-stimulated THP-1 cells shed both the p75/80 and the p55/60 receptors over time. The release of membrane bound TNF-α and possibly TNF-R p75/80 and TNF-R p55/60, but not IL-8, is mediated by an enzyme called TNF-a converting enzyme or TACE.
THP-1 cells (from ATCC) are a human monocytic cell line which were obtained from the peripheral blood of a person with acute monocytic leukemia. They can be grown in culture and differentiated into macrophage like cells by stimulation with mitogens.
Each vial of cells are cultured for about two weeks prior to being used for an assay and then are used for only 4 to 6 weeks to screen compounds.
Cell exposure to DMSO was limited to 0.1% final concentration. […] Compounds can be evaluated for their effect on basal (non-stimulated) shedding of the receptors by replacing the LPS with […] of THP-1 media. Plates are placed into an incubator set at 5% CO2 and at 37° C. […]
In addition, at the 24 hours timepoint, and the cells for each treatment group are collected by resuspension in 500 μl/well of THP-1 media and transferred into a FACS tube. […] The samples are run on a Becton Dickinson FaxCaliber FLOW cytometry machine and the amount of dye taken up by each cell is measured in the high red wavelength (FL3). […] The percent of live cells is calculated by the number of cells not stained with PI, divided by the total number of cells in the sample. […]

The target in another test is T1, MMP-1 (Homo sapiens, UniProt P03956).
T1 sequence (P03956 100-469): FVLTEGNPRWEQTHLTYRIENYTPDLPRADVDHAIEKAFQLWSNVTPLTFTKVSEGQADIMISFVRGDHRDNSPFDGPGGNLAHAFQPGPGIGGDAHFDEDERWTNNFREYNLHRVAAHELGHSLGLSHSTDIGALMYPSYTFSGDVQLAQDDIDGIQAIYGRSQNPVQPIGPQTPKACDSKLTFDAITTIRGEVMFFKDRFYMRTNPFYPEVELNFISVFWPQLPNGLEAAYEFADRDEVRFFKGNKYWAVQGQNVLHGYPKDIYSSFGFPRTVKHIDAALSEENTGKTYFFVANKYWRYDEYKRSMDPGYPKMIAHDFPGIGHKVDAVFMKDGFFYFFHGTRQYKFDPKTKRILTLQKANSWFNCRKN
The test can be described thus: MMP-1 inhibition (thiopeptide or fluorescent peptide substrate). It counts as biochemical. As for the experimental part:
as §1, §2, §3

The target of the next test is MMP-9 (Homo sapiens, UniProt P14780). The test can be described thus: MMP-9 inhibition (thiopeptide or fluorescent peptide substrate). It is filed as biochemical. The method, then:
as §1, §2, §3

In test [1] the target is TNF-α converting enzyme (TACE) (Homo sapiens, UniProt P78536). The test can be described thus: TACE inhibition (fluorescent peptidyl substrate). It counts as biochemical. The method, then: Using 96-well black microtiter plates, each well receives a solution composed of 10 μL TACE (final concentration 1 μg/mL), 70 μL Tris buffer, pH 7.4 containing 10% glycerol (final concentration 10 mM), and 10 μL of test compound solution in DMSO (final concentration 1 μM, DMSO concentration <1%) and incubated for 10 minutes at room temperature. The reaction is initiated by addition of a fluorescent peptidyl substrate (final concentration 100 μM) to each well and then shaking on a shaker for 5 sec.
The reaction is read (excitation 340 nm, emission 420 nm) for 10 min. and the increase in fluorescence over time is plotted as a linear line. The slope of the line is calculated and represents the reaction rate.
The mean (x±sem) of the control rate is calculated and compared for statistical significance (p<0.05) with drug-treated rates using Dunnett's multiple comparison test.

In general, IC50 refers to the midpoint of a concentration-inhibition curve.

TNF-α converting enzyme (TACE), sequence (P78536 215-824, species assumed): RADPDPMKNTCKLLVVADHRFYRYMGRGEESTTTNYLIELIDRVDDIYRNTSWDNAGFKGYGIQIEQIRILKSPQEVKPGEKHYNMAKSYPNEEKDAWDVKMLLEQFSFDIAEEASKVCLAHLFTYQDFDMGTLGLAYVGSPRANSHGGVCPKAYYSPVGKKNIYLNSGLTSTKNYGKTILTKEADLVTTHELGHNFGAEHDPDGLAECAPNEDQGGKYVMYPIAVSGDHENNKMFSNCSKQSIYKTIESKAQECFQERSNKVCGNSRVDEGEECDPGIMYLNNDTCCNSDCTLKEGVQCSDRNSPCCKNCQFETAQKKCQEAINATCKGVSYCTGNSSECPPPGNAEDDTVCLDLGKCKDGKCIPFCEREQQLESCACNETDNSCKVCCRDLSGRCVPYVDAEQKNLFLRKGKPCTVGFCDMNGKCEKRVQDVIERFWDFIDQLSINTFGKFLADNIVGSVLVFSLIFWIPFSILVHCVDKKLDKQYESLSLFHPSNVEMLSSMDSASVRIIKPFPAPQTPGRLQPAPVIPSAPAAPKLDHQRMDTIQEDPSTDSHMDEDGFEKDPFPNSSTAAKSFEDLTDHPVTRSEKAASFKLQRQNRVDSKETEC
MMP-9, sequence (P14780 94-707): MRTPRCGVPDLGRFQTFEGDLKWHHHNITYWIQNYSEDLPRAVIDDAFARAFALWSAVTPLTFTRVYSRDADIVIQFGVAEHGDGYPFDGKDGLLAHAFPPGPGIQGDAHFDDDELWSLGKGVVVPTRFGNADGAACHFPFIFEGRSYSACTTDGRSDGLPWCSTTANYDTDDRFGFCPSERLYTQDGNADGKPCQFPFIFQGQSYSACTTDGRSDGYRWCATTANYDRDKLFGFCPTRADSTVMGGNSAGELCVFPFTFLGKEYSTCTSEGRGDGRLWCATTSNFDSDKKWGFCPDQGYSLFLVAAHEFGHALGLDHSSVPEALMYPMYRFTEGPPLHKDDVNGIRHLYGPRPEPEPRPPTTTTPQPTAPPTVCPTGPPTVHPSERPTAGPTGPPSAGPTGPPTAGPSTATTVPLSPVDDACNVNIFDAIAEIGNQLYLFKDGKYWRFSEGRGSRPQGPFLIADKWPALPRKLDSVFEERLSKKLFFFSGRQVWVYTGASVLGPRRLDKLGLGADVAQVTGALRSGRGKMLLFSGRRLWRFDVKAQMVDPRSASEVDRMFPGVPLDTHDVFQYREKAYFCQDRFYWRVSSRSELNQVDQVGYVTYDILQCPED

“5-Bromo-2-[(4-butoxy-benzenesulfonyl)-methyl-amino]-N-hydroxy-3-methyl-benzamide [Example 39]”: the IC50 stood at 68 nM on MMP-13, 2490 nM against MMP-1, 21 nM against MMP-9 and 67 nM in test [1]. Moreover, the “THP % Inhib. @ 3 μM” value with THP-1 cells is 0%.
